pIC50: −log10 of the molar value. “And” between values parts separate entries of the source, which are not always exact repeats. Equal entries are not always repeated.
Tested on: 855422-203-R-J1-PDC complex spheroid growth
Experiment: Anticancer human tumor 855422-203-R-J1-PDC patient-derived bladder carcinoma cell line growth inhibition [AhR]
Conditions: for viability, T/C: stronger effect = lower value
From the text: Multicellular complex tumor spheroid response to aryl hydrocarbon receptor antagonists in combination with a variety of drugs and investigational agents in selected tumor cell lines
The current study was undertaken to assess response to aryl hydrocarbon receptor antagonists in combination with standard-of-care drugs and investigational agents in solid tumor complex spheroid models. Complex spheroids include a stromal component modeled by human endothelial cells (HUVEC) and fibroblasts modeled by human mesenchymal stem cells (MSCs). The concentration ranges selected for each drug and investigational agent were based upon clinically achievable concentrations if the clinical Cmax of the agent was known.
Compounds. The drugs and investigational agents: BAY 2416964 (NSC825713), GNF351 (NSC835774), CH-223191 (NSC835775), CPI-455 (NSC825282), aza-TdCyd (NSC777586), decitabine (NSC127716), belinostat (NSC758774), entinostat (NSC756642), pevonedistat (NSC761192), tazemetostat (NSC777109), talazoparib (NSC765396), olaparib (NSC753686), selinexor (NSC780203), nedisertib (M3814, NSC802822), bortezomib (NSC756655), venetoclax (NSC766270), doxorubicin (NSC123127), elimusertib (BAY189344, NSC800525), ceralasertib (AZD6738, NSC777638), TAK-243 (NSC785004), alisertib (NSC759677), etoposide (NSC141540), topotecan (NSC609699), eribulin (NSC707389), gemcitabine (NSC613327), carboplatin (NSC241240), cisplatin (NSC119875), and SN-38 (NSC673596) were obtained from the National Cancer Institute (NCI) Developmental Therapeutics Program Chemical Repository (32). The FDA-approved anticancer drug set is available from the Developmental Therapeutics Program at https://dtp.cancer.gov/organization/dscb/obtaining/available plates.htm. […] The stock solutions were prepared in dimethyl sulfoxide (DMSO, Sigma-Aldrich, St. Louis, MO, cat. D2650), except for the platinum compounds which were prepared in saline (Quality Biological, Gaithersburg, MD, cat. 114-055-101), at 800-fold the tested concentration and stored at -70 degrees C prior to their use. All drugs and investigational agents were tested over a range starting from a high concentration at or near the clinical Cmax and decreasing in half-log increments. If the clinical Cmax for an agent had not been determined, the highest concentration tested was 10 microM (Table 1).
Cell Culture. All cells were maintained in an incubator at 37 degrees C and 5% CO2 with 95% humidity. The PDC lines were cultured according to standard operating procedures established by the NCI PDMR (https://pdmr.cancer.gov). Briefly, all PDCs were thawed and cultured in Matrigel-coated flasks prepared with a working solution of 1X Ham's F-12 nutrient mix, without supplementation (Invitrogen, Waltham, MA, cat. 11765054), 100 U/mL penicillin-streptomycin (Invitrogen, cat. 15140122), and 2.5% Matrigel (Corning Inc., Corning, NY, cat. 354248) for the first three passages. All PDCs were cultured in complete DMEM/F-12 media containing advanced DMEM/F-12 (Invitrogen, cat. 12634028), 4.9% defined fetal bovine serum, heat inactivated (HyClone Laboratories Inc., Logan, UT, cat. SH30070.03HI), 389 ng/mL hydrocortisone (Sigma-Aldrich, cat. H4001), 9.7 ng/mL human EGF recombinant protein (Invitrogen, cat. PHG0313), 23.4 microg/mL adenine (Sigma-Aldrich, cat. A2786), 97.3 U/mL penicillin-streptomycin (Invitrogen, cat. 15140122), 1.9 mM L-glutamine (Invitrogen, cat. 25030081), and 9.7 microM Y-27632 dihydrochloride (Tocris Bioscience, Bristol, United Kingdom, cat. 1254). The PDCs were cultured in complete DMEM/F12 media without 10 microM Y-27632 dihydrochloride for at least two passages prior to the screen. The established cell lines NCI-H1341 and […] were cultured in DMEM/F-12, HEPES (Invitrogen, cat. 11330032), 5% defined fetal bovine serum (HyClone Laboratories Inc., cat. SH30070.03), ITS premix universal culture supplement [insulin (5 microg/mL), transferrin (5 microg/mL), and selenious acid (5 ng/mL)] […]

[1] = curve of first compound, second compound 0.1 µM
[2] = curve of first compound, second compound 0.316 µM
[3] = curve of first compound, second compound 1 µM
[4] = curve of first compound, second compound 3.16 µM
[5] = curve of first compound, second compound 10 µM
[6] = second compound 0.1 µM, first compound 0.0316 µM
[7] = second compound 0.1 µM, first compound 0.1 µM
[8] = second compound 0.1 µM, first compound 0.316 µM
[9] = second compound 0.1 µM, first compound 1 µM
[10] = second compound 0.1 µM, first compound 3.16 µM
[11] = second compound 0.1 µM, first compound 10 µM
[12] = second compound 0.316 µM, first compound 0.0316 µM
[13] = second compound 0.316 µM, first compound 0.1 µM
[14] = second compound 0.316 µM, first compound 0.316 µM
[15] = second compound 0.316 µM, first compound 1 µM
[16] = second compound 0.316 µM, first compound 3.16 µM
[17] = second compound 0.316 µM, first compound 10 µM
[18] = second compound 1 µM, first compound 0.0316 µM
[19] = second compound 1 µM, first compound 0.1 µM
[20] = second compound 1 µM, first compound 0.316 µM
[21] = second compound 1 µM, first compound 1 µM
[22] = second compound 1 µM, first compound 3.16 µM
[23] = second compound 1 µM, first compound 10 µM
[24] = second compound 3.16 µM, first compound 0.0316 µM
[25] = second compound 3.16 µM, first compound 0.1 µM
[26] = second compound 3.16 µM, first compound 0.316 µM
[27] = second compound 3.16 µM, first compound 1 µM
[28] = second compound 3.16 µM, first compound 3.16 µM
[29] = second compound 3.16 µM, first compound 10 µM
[30] = second compound 10 µM, first compound 0.0316 µM
[31] = second compound 10 µM, first compound 0.1 µM
[32] = second compound 10 µM, first compound 0.316 µM
[33] = second compound 10 µM, first compound 1 µM
[34] = second compound 10 µM, first compound 3.16 µM
[35] = second compound 10 µM, first compound 10 µM
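Note: spheroids exposed to agents for seven days before readout.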
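Throughout, for viability, T/C: percent of DMSO vehicle control luminescence viability.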

In the case of `CCN(c1cc(-c2ccc(CN3CCOCC3)cc2)cc(C(=O)NCc2c(C)cc(C)[nH]c2=O)c1C)C1CCOCC1` + Cc1ccccc1N=Nc1ccc(NC(=O)c2ccnn2C)c(C)c1, the pIC50 [1] was < 5.52, the pIC50 [2] was < 5.52 and the pIC50 [3] was < 5.52. For the same molecule, the pIC50 [4] was < 5.52, the pIC50 [5] was < 5.52 and the viability, T/C (second compound 0.1 µM, first compound 0.00949 µM) was 105%. The viability, T/C (second compound 0.1 µM, first compound 0.03 µM) was 93.4%, the viability, T/C (second compound 0.1 µM, first compound 0.0949 µM) was 93.2% and the viability, T/C (second compound 0.1 µM, first compound 0.3 µM) was 91.2%. It also gave a viability, T/C (second compound 0.1 µM, first compound 0.949 µM) of 91.1%, a viability, T/C (second compound 0.1 µM, first compound 3 µM) of 87.5% and a viability, T/C (second compound 0.316 µM, first compound 0.00949 µM) of 93.7%. It also gave a viability, T/C (second compound 0.316 µM, first compound 0.03 µM) of 93.2%, a viability, T/C (second compound 0.316 µM, first compound 0.0949 µM) of 92.6% and a viability, T/C (second compound 0.316 µM, first compound 0.3 µM) of 97.3%. The viability, T/C (second compound 0.316 µM, first compound 0.949 µM) was 87%, the viability, T/C (second compound 0.316 µM, first compound 3 µM) was 85.3% and the viability, T/C (second compound 1 µM, first compound 0.00949 µM) was 105%. For the same molecule, the viability, T/C (second compound 1 µM, first compound 0.03 µM) was 98.8%, the viability, T/C (second compound 1 µM, first compound 0.0949 µM) was 95.6% and the viability, T/C (second compound 1 µM, first compound 0.3 µM) was 96.3%. It also gave a viability, T/C (second compound 1 µM, first compound 0.949 µM) of 92.8%, a viability, T/C (second compound 1 µM, first compound 3 µM) of 85.3% and a viability, T/C (second compound 3.16 µM, first compound 0.00949 µM) of 91.3%. For the same molecule, the viability, T/C (second compound 3.16 µM, first compound 0.03 µM) was 90.2%, the viability, T/C (second compound 3.16 µM, first compound 0.0949 µM) was 84.3% and the viability, T/C (second compound 3.16 µM, first compound 0.3 µM) was 87.1%. The viability, T/C (second compound 3.16 µM, first compound 0.949 µM) was 83.6%, the viability, T/C (second compound 3.16 µM, first compound 3 µM) was 82.3% and the viability, T/C (second compound 10 µM, first compound 0.00949 µM) was 84.2%. The viability, T/C (second compound 10 µM, first compound 0.03 µM) was 76.8%, the viability, T/C (second compound 10 µM, first compound 0.0949 µM) was 79.8% and the viability, T/C (second compound 10 µM, first compound 0.3 µM) was 77.8%. It also gave a viability, T/C (second compound 10 µM, first compound 0.949 µM) of 71.3% and a viability, T/C (second compound 10 µM, first compound 3 µM) of 72.4%.

With `CC1COCCN1c1cc(C2(S(C)(=N)=O)CC2)nc(-c2ccnc3[nH]ccc23)n1` (stereo unspecified) + CC(CO)NC(=O)c1cc(-c2ccc(Cl)cc2)nn(-c2cnn(C)c2)c1=O the pIC50 [1] was < 5.00, the pIC50 [2] was < 5.00 and the pIC50 [3] was < 5.00. For the same molecule, the pIC50 [4] was < 5.00, the pIC50 [5] was < 5.00 and the viability, T/C [6] was 90.6%. It also gave a viability, T/C [7] of 88.8%, a viability, T/C [8] of 92.3% and a viability, T/C [9] of 92.9%. It also gave a viability, T/C [10] of 134%, a viability, T/C [11] of 68.3% and a viability, T/C [12] of 92.2%. The viability, T/C [13] was 88.2%, the viability, T/C [14] was 95.2% and the viability, T/C [15] was 112%. For the same molecule, the viability, T/C [16] was 136%, the viability, T/C [17] was 75.4% and the viability, T/C [18] was 108%. For the same molecule, the viability, T/C [19] was 100%, the viability, T/C [20] was 108% and the viability, T/C [21] was 111%. The viability, T/C [22] was 123%, the viability, T/C [23] was 60.8% and the viability, T/C [24] was 93.9%. For the same molecule, the viability, T/C [25] was 98.7%, the viability, T/C [26] was 107% and the viability, T/C [27] was 110%. It also gave a viability, T/C [28] of 123%, a viability, T/C [29] of 58.9% and a viability, T/C [30] of 98.6%. The viability, T/C [31] was 94.9%, the viability, T/C [32] was 81% and the viability, T/C [33] was 95.9%. For the same molecule, the viability, T/C [34] was 104% and the viability, T/C [35] was 75.2%.

In the case of `COc1cc(Nc2ncc3c(n2)-c2ccc(Cl)cc2C(c2c(F)cccc2OC)=NC3)ccc1C(=O)O` + CC(CO)NC(=O)c1cc(-c2ccc(Cl)cc2)nn(-c2cnn(C)c2)c1=O, the pIC50 [1] was < 5.00, the pIC50 [2] was 5.00 and the pIC50 [3] was < 5.00. The pIC50 [4] was < 5.00, the pIC50 [5] was < 5.00 and the viability, T/C [6] was 97%. It also gave a viability, T/C [7] of 93.6%, a viability, T/C [8] of 66% and a viability, T/C [9] of 57.6%. For the same molecule, the viability, T/C [10] was 52.2%, the viability, T/C [11] was 46.1% and the viability, T/C [12] was 87.1%. It also gave a viability, T/C [13] of 107%, a viability, T/C [14] of 66.2% and a viability, T/C [15] of 55.2%. It also gave a viability, T/C [16] of 48%, a viability, T/C [17] of 48.1% and a viability, T/C [18] of 93.5%. For the same molecule, the viability, T/C [19] was 104%, the viability, T/C [20] was 66.2% and the viability, T/C [21] was 61%. For the same molecule, the viability, T/C [22] was 48.1%, the viability, T/C [23] was 45.9% and the viability, T/C [24] was 88.9%. For the same molecule, the viability, T/C [25] was 90.6%, the viability, T/C [26] was 60.2% and the viability, T/C [27] was 58.5%. It also gave a viability, T/C [28] of 46.4%, a viability, T/C [29] of 47.2% and a viability, T/C [30] of 94.7%. The viability, T/C [31] was 79.9%, the viability, T/C [32] was 60.8% and the viability, T/C [33] was 50.6%. For the same molecule, the viability, T/C [34] was 55.5% and the viability, T/C [35] was 46.3%.

For `CC(C)CC(NC(=O)C(Cc1ccccc1)NC(=O)c1cnccn1)B(O)O` (stereo unspecified), the viability, T/C (compound 0.000949 µM) was 110% and 101% and 118%, the viability, T/C (compound 0.00949 µM) was 0.21% and 0.27% and 0.11% and the viability, T/C (compound 0.03 µM) was 0.16% and 0.14% and 0.42%. For the same molecule, the viability, T/C (compound 0.0949 µM) was 0.15% and 0.14% and 0.12%, the viability, T/C (compound 0.3 µM) was 0.19% (2×) and 0.21% and the pIC50 (curve of compound) was 8.55 and 8.24 and 8.73.
